Series [1] concerns the target T1, ABCB1 (Homo sapiens, UniProt P08183). The note with it: cited from earlier work.
For a further series, the target named is ABCC1 (Homo sapiens, UniProt P33527). The note with it: cited from earlier work. Note: key: the inhibitor is active (+); it is inactive (−); the effect is unknown (?).
The target of another series is T2, ABCG2 (Homo sapiens, UniProt Q9UNQ0).
T2 sequence (Q9UNQ0 1-655): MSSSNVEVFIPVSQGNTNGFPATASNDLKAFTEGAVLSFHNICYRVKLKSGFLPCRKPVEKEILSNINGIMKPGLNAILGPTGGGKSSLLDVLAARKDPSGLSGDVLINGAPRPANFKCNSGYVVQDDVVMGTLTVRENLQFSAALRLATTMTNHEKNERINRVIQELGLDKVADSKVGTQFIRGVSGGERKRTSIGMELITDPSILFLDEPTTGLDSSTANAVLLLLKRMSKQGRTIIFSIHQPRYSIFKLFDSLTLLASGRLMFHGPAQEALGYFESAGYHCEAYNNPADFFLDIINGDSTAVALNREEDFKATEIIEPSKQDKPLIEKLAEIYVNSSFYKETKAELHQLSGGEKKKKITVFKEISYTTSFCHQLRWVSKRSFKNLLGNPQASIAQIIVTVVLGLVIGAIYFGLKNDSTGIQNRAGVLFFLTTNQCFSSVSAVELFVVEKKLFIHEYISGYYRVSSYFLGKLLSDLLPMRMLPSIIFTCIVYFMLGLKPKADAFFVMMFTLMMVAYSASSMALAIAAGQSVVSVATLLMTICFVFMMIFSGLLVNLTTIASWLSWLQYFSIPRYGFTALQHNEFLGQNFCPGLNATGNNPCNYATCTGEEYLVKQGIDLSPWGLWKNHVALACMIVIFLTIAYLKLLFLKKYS
The conditions noted are these: cited from earlier work.

Series [2] has as its target T1, ABCB1. As to the kind of experiment: Type of inhibition: daunorubicin efflux at varied substrate and inhibitor concentrations (FIG. 11). The series is classed as cell-based. Also on record: expressed in transfected cells; host or cells: NIH3T3 transfected with pHaMDR1/A. The conditions noted are these: daunorubicin efflux as a function of its concentration.
The next series has as its target T3, P-gp/ABCB1 (Homo sapiens, UniProt P08183).
T3 construct: expressed in transfected cells; host or cells: NIH3T3 transfected with pHaMDR1/A
As to the kind of experiment: Flow cytometry: mitoxantrone efflux induced by ABCB1 in transfected NIH3T3 cells. The series is classed as cell-based. The source says: (§1) Cell cultures. The human […] HEK-293 transfected with the vector pcDNA3.1 including or not the gene encoding ABCG2 (Robey, R. W., Honjo, Y., Morisaki, K., Nadjem, T. A., Runge, S., Risbood, M., Poruchynsky, M. S., Bates, S. E. 2003, Br. J. Cancer 89(10) 1971-1978) was used to test the efficacy of the products on ABCG2. The newborn hamster kidney cell line BHK21 either natural (negative control) or transfected with the vector pNUT-MRP/His expressing the gene encoding ABCC1 (Chang, Xiu-Bao, Hou, Yue-Xian, Riordan, John R. 1997, J. Biol. Chem. 272(49) 30962-30968) was used to test the efficacy of the products on ABCC1. The cell line NIH3T3 natural or transfected with the vector pHaMDR1/A expressing ABCB1 (Cardarelli, Carol O., Aksentijevich, Ivan, Pastan, Ira, Gottesman, Michael M. 1995 Cancer Res. 55 1086-1091) was used to test the efficacy of the compounds on ABCB1. The various cell types are cultured according to the protocols described previously (Robey, R. W., Honjo, Y., Morisaki, K., Nadjem, T. A., Runge, S., Risbood, M., Poruchynsky, M. S., Bates, S. E. 2003, Br. J. Cancer 89(10) 1971-1978 for the line HEK293, Chang, Xiu-Bao, Hou, Yue-Xian, Riordan, John R. 1997, J. Biol. Chem. 272(49) 30962-30968 for the line BHK21 and Cardarelli, Carol O., Aksentijevich, Ivan, Pastan, Ira, Gottesman, Michael M. 1995 Cancer Res. 55 1086-1091 for the line NIH3T3).
(§2) FIG. 1 schematically illustrates an efflux of substrate induced by a typical ABC transporter. The substrates S, such as mitoxantrone effluxed with ABCG2 and ABCB1 or daunorubicin effluxed with ABCC1, are accumulated in the cells and expelled by the transporter T, leading to a decrease in intracellular fluorescence. In the case of accumulation of the product, typically by inhibition of the efflux protein, the intracellular fluorescence increases.
(§3) Flow cytometry. Transfected or untransfected HEK-293 and BHK-21 cells are in a first stage placed in contact with substrate (5 μM mitoxantrone or 1 μM daunorubicin depending on the transporter). The substrate is accumulated for 30 minutes at 37° C. in the presence or absence of varied concentrations of the test molecules, at 0.5% of DMSO final. After washing with PBS, the cells are incubated in medium containing the same concentrations of test molecules as previously, for 1 hour at 37° C. The drug intracellular fluorescence is measured with a FACscan flow cytometer (Becton Dickinson, Mountain View, Calif.). The fluorescent substrates are excited at 488 nm; the fluorescence emission of mitoxantrone (MTX) is measured at 650 nm and that of daunorubicin is measured at 530 nm. The efficacy of the test molecules is estimated by means of equation 1:
(§4) % efficacy=100×(FA−FBG)/(FC−FBG),
(§5) in which: • FA corresponds to the intracellular level of substrate measured in the cells overexpressing the transporter T (corresponding to the lowest level of fluorescence in the absence of inhibitor), • FC corresponds to the fluorescence in the control cells not expressing the test transporter. This is thus the maximum accumulation of substrate in the cells), • FBG corresponds to the fluorescence measured in the absence of substrate and in the presence of inhibitor.
(§6) The compounds presented in TABLES 2 to 5 were tested by flow cytometry on mammalian cell lines selectively expressing the efflux proteins ABCG2, ABCB1 or ABCC1, as described previously.
(§7) The mitoxantrone efflux induced by ABCG2 or ABCB1 and the daunorubicin efflux induced by ABCC1 are estimated by flow cytometry, as described previously, at 10 μM of each test compound, and then at 2 μM for the compounds showing at least 80% efficacy at 10 μM. The concentration inducing 50% inhibition (IC50) was estimated for the most efficient aza derivatives. The values are obtained by three independent experiments and were adjusted using the SigmaPlot software.
(In flow cytometry, cells or beads pass a laser one at a time.)

For another series, the target named is T4, BCRP/ABCG2 (Homo sapiens, UniProt Q9UNQ0).
T4 construct: expressed in transfected cells; host or cells: HEK-293 transfected with pcDNA3.1-ABCG2
T4 sequence (Q9UNQ0 1-655): T2 sequence (Q9UNQ0 1-655)
The series is described as follows: Flow cytometry: mitoxantrone efflux induced by ABCG2 in transfected HEK-293 cells. It is filed as cell-based.
From the text: as §1, §2, §3, §4, §5, §6, §7

Each structure is given as a SMILES string.
Throughout, for active or inactive on ABCB1: key: the inhibitor is active (+); it is inactive (−); the effect is unknown (?).

T3 sequence (P08183 whole entry): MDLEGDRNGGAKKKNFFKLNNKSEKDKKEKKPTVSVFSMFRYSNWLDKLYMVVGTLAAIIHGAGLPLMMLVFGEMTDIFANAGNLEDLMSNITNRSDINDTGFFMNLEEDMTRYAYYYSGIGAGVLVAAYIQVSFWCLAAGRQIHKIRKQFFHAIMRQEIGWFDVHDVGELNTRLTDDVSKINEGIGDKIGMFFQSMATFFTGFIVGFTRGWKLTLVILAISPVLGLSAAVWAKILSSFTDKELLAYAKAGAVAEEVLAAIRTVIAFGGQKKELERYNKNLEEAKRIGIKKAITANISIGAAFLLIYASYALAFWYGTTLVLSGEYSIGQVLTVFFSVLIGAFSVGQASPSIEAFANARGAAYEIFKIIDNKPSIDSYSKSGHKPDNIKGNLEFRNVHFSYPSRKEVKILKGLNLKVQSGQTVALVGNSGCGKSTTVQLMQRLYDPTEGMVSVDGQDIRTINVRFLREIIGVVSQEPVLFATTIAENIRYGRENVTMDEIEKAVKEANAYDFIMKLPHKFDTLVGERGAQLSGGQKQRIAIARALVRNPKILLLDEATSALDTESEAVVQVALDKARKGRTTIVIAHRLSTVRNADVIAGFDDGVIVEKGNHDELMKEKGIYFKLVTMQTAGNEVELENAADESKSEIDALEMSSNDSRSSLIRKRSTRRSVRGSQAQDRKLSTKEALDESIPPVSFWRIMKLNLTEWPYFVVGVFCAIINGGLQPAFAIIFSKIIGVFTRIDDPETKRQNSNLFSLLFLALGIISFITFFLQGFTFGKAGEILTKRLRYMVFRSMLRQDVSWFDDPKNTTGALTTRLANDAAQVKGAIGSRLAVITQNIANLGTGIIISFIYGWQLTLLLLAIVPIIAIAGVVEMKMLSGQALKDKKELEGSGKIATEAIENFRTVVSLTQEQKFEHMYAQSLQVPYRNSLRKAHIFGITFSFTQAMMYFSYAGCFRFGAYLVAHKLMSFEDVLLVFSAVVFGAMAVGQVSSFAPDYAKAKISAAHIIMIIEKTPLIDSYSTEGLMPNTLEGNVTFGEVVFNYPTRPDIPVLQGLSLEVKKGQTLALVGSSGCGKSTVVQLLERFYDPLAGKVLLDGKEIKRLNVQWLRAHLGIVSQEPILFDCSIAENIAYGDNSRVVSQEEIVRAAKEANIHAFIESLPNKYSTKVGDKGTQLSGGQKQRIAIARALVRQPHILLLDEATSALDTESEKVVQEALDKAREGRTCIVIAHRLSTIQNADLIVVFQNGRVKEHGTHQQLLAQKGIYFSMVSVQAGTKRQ
T1 sequence (P08183 whole entry): as above
Sequence of ABCC1 (P33527 whole entry): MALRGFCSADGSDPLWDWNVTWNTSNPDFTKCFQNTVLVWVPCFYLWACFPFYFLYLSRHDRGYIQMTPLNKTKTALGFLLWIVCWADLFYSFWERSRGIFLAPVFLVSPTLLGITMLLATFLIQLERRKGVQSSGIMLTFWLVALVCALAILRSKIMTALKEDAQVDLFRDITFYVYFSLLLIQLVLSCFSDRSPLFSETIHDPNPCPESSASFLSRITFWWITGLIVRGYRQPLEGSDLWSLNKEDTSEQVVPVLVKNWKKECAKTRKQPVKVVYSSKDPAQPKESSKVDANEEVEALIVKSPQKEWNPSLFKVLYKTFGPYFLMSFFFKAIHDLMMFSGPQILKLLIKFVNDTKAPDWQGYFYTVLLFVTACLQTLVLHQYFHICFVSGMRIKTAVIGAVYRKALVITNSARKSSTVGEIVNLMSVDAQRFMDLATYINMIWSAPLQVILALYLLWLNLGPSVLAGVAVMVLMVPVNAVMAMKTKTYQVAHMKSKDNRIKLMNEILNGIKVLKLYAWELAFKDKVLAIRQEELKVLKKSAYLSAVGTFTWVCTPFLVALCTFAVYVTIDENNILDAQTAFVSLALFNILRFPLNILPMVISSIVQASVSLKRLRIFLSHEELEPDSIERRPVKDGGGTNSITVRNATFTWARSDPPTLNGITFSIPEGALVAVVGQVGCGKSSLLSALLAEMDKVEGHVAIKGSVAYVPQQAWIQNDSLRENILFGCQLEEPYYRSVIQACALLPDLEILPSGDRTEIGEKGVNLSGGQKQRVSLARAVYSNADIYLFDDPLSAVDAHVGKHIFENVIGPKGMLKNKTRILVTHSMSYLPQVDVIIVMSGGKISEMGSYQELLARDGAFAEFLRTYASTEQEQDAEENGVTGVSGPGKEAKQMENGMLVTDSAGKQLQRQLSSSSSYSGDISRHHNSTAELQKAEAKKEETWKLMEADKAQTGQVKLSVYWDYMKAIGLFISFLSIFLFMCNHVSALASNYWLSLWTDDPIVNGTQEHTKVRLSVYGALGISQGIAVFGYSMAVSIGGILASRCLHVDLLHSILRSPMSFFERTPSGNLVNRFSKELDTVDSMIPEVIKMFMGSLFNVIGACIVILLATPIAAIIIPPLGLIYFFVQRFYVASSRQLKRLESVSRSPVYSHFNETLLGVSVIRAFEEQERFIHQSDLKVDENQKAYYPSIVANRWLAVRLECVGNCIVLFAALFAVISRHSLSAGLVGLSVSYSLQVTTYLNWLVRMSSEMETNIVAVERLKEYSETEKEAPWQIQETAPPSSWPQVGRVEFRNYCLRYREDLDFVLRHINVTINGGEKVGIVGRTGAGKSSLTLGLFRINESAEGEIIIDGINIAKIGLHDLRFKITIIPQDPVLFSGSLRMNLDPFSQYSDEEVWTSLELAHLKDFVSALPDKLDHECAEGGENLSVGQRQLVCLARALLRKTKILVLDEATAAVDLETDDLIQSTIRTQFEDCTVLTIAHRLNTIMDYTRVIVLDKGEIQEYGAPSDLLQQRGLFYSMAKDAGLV

`COc1cc(C(=O)C(=O)N2CCCC[C@H]2C(=O)OC(CCCc2cccnc2)CCCc2cccnc2)cc(OC)c1OC` [VX-710, biricodar]: the “active or inactive on ABCB1” value on ABCB1 [1] was “+”. Further, the “active or inactive on ABCC1” value at ABCC1 is listed as “+”. Besides, the “active or inactive on ABCG2” value at ABCG2 is on record as “+”.

Take `COC(=O)c1cnc2n1CCc1ccccc1C2=C1CCN(CCc2ccc(OCc3ccc4ccccc4n3)cc2)CC1` [R101933, laniquidar]: the “active or inactive on ABCB1” value at ABCB1 [1] is recorded as “+”.

Turning to `COc1cc2c(cc1OC)CN(CCc1ccc(NC(=O)c3cccc4c(=O)c5cccc(OC)c5[nH]c34)cc1)CC2` [GF 120918, elacridar], the “active or inactive on ABCB1” value on ABCB1 [1] is “+”. For the same compound, the “active or inactive on ABCC1” value at ABCC1 is “−”. In addition, at ABCG2, the “active or inactive on ABCG2” value is on record as “+”.

Regarding `CCOC/C=C/c1ccc(-c2nc(-c3ccc(NC(C)C)cc3)c(-c3ccc(NC(C)C)cc3)[nH]2)cc1` [ONT-093, ontogen], the “active or inactive on ABCB1” value on ABCB1 [1] is reported as “+”. Further, the “active or inactive on ABCC1” value at ABCC1 was “−”.

Regarding `COc1cc2c(cc1OC)CN(CCc1ccc(NC(=O)c3cc(OC)c(OC)cc3NC(=O)c3cnc4ccccc4c3)cc1)CC2` [XR9576, tariquidar], the “active or inactive on ABCB1” value on ABCB1 [1] is given as “+”. Besides, the “active or inactive on ABCG2” value on ABCG2 was “+”.

With `O[C@@H](COc1cccc2ncccc12)CN1CCN([C@@H]2c3ccccc3[C@@H]3[C@H](c4ccccc42)C3(F)F)CC1` [Ly335979, zosuquidar], the “active or inactive on ABCC1” value on ABCC1 is recorded as “−”. The “active or inactive on ABCG2” value at ABCG2 is given as “−”.

Consider `CC(C)(C)OC(=O)NN(C(=O)N[C@@H](CCCCNC(=O)OCc1ccccc1)C(=O)OC(C)(C)C)c1ccc(C(=O)OCc2ccccc2)cc1` [IA.3, tert-Butyl ester of (2S)-6-(benzyloxycarbonylamino)-2-[1-(4′-(benzyloxycarbonyl)phenyl)-2-(tert-butoxycarbonyl)hydrazino-carbonylamino]hexanoic acid], for which the melting point – broadly, the temperature, or range, at which the solid turns liquid – is 106 °C. In addition, the “type of inhibition of ABCB1” value on ABCB1 [2] is “inhibition of noncompetitive type”. Further, at P-gp/ABCB1, the midpoint of inhibition, the IC50, lay at 330 nM. In addition, the inhibition at 2 μM on P-gp/ABCB1 (human, NIH3T3 cells transfected with ABCB1 (vector pHaMDR1/A), probe mitoxantrone (5 μM), 2 μM compound, read-out: P-gp/ABCB1 % efficacy 2 μM) worked out at 90 ± 7%. Also, the inhibition at 10 μM on P-gp/ABCB1 (human, NIH3T3 cells transfected with ABCB1 (vector pHaMDR1/A), probe mitoxantrone (5 μM), 10 μM compound, read-out: P-gp/ABCB1 % efficacy 10 μM) amounted to 98 ± 14%. Moreover, on BCRP/ABCG2 (BCRP versus P-gp), the “selectivity toward one or other of the proteins BCRP or P-gp” value was “selective”. The inhibition at 10 μM on BCRP/ABCG2 (human, HEK-293 cells transfected with ABCG2 (vector pcDNA3.1), probe mitoxantrone (5 μM), 10 μM compound, mitoxantrone efflux, HEK-293 cells, three independent experiments, read-out: BCRP/ABCG2 % efficacy 10 μM) was 38%.

As to `C/C=C/C[C@@H](C)C(=O)[C@H]1C(=O)N[C@@H](C(C)C)C(=O)N(C)CC(=O)N(C)[C@@H](CC(C)C)C(=O)N[C@@H](C(C)C)C(=O)N(C)[C@@H](CC(C)C)C(=O)N[C@@H](C)C(=O)N[C@H](C)C(=O)N(C)[C@@H](CC(C)C)C(=O)N(C)[C@@H](CC(C)C)C(=O)N(C)[C@@H](C(C)C)C(=O)N1C` [PSC833, valspodar], the “active or inactive on ABCB1” value at ABCB1 [1] is given as “+”. In addition, the “active or inactive on ABCG2” value on ABCG2 is given as “−”.
